Measured values from patent US7964624B1, “Inhibitors of serine proteases” (priority 2005, dated 2011).

Target: T1, HCV NS3 protease domain (Hepatitis C virus genotype 1b, UniProt Q9WMX2)
T1 construct: The first 181 amino acids of NS3 (residues 1027-1207 of the viral polyprotein); hexa-histidine (C); made in house; host or cells: E. coli BL21/DE3 pLysS
Assay: biochemical
Settings: Enzyme Assay 1 (HCV NS3 Protease Domain Peptide Cleavage Assay) activity, apparent Ki class

T1 sequence (Q9WMX2 1027-1207, other chains not shown): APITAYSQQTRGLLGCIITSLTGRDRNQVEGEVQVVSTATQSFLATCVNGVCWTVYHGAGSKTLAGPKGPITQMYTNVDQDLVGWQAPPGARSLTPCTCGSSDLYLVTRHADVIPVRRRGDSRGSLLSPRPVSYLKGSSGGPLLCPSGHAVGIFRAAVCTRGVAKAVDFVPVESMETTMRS

SMILES | Ki
CCC[C@H](NC(=O)[C@@H]1C[C@]2(CC(c3ccc(F)cc3)=NO2)CN1C(=O)[C@@H](NC(=O)[C@@H](NC(=O)c1cnccn1)C(C)(C)C)C(C)(C)C)C(=O)C(=O)NC1CC1 [Compound 417] | < 100 nM
CCC[C@H](NC(=O)[C@@H]1C[C@]2(CC(c3cccc(Cl)c3)=NO2)CN1C(=O)C1CC1c1ccccc1)C(=O)C(=O)NC1CC1 (some centres unmarked) [Compound 421] | > 500 nM
CCC[C@H](NC(=O)[C@@H]1C[C@]2(CC(c3ccc4c(c3)OCO4)=NO2)CN1C(=O)[C@@H](NC(=O)O[C@H]1CCOC1)C(C)(C)C)C(=O)C(N)=O [Compound 422] | 100 to 500 nM
CCC[C@H](NC(=O)[C@@H]1C[C@@]2(CC(c3ccc(C)c(F)c3)=NO2)CN1C(=O)[C@@H](NC(=O)O[C@H]1CCOC1)C(C)(C)C)C(=O)C(=O)NC1CC1 [Compound 423] | > 500 nM
COc1ccc(C2=NO[C@@]3(C2)C[C@@H](C(=O)NC(CC2CCC2)C(=O)C(N)=O)N(C(=O)[C@@H](NC(=O)OCc2ccccc2)C(C)(C)C)C3)c(OC)c1 (some centres unmarked) [Compound 424] | 100 to 500 nM
CCC[C@H](NC(=O)[C@@H]1C[C@]2(CC(c3cccc(-c4ccncc4)c3)=NO2)CN1C(=O)[C@@H](NC(=O)O[C@H]1CCOC1)C(C)(C)C)C(=O)C(=O)NC1CC1 [Compound 425] | > 500 nM
CCC[C@H](NC(=O)[C@@H]1C[C@]2(CC(c3cccc(Cl)c3)=NO2)CN1C(=O)[C@H](Cc1ccccc1)NC(=O)OCC)C(=O)C(=O)NC1CC1 [Compound 427] | > 500 nM
CCC[C@H](NC(=O)[C@@H]1C[C@@]2(CC(c3ccccc3)=NO2)CN1C(=O)[C@@H](NC(=O)[C@@H](NC(=O)c1cnccn1)C1CCCCC1)C(C)(C)C)C(=O)C(=O)NC1CC1 [Compound 428] | 100 to 500 nM
CCC[C@H](NC(=O)[C@@H]1C[C@]2(CC(c3cccc(Cl)c3)=NO2)CN1C(=O)[C@@H](NC(=O)Cc1ccccc1C)C(C)(C)C)C(=O)C(=O)NC1CC1 [Compound 431] | 100 to 500 nM
CCC[C@H](NC(=O)[C@@H]1C[C@]2(CC(c3cccc(Cl)c3)=NO2)CN1C(=O)[C@@H](NC(=O)N(C)CC)C(C)(C)C)C(=O)C(=O)NC1CC1 [Compound 432] | > 500 nM
CCC[C@H](NC(=O)[C@@H]1C[C@]2(CC(c3cccc(OC)c3OC)=NO2)CN1C(=O)[C@@H](NC(=O)OCc1ccccc1)C(C)(C)C)C(=O)C(=O)NC1CC1 [Compound 434] | 100 to 500 nM
CCC[C@H](NC(=O)[C@@H]1C[C@]2(CC(c3cccc(Cl)c3)=NO2)CN1C(=O)[C@@H](NC(=O)c1c(OC)ccc2ccccc12)C(C)(C)C)C(=O)C(=O)NC1CC1 [Compound 435] | 100 to 500 nM
CCC[C@H](NC(=O)[C@@H]1C[C@]2(CC(c3ccc(Cl)c(C)c3)=NO2)CN1C(=O)[C@@H](NC(=O)CC1CCCCC1)C(C)(C)C)C(=O)C(=O)NC1CC1 [Compound 436] | 100 to 500 nM
CCC[C@H](NC(=O)[C@@H]1C[C@]2(CC(c3cccc(C)c3)=NO2)CN1C(=O)[C@@H](NC(=O)O[C@H]1CCOC1)C(C)(C)C)C(=O)C(=O)NC1CC1 [Compound 444] | 100 to 500 nM
CCC[C@H](NC(=O)[C@@H]1C[C@]2(CC(c3ccc4noc(-c5ccc(Cl)cc5)c4c3)=NO2)CN1C(=O)[C@@H](NC(=O)O[C@H]1CCOC1)C(C)(C)C)C(=O)C(=O)NC1CC1 [Compound 448] | 100 to 500 nM
CCC[C@H](NC(=O)[C@@H]1C[C@]2(CC(c3cccc(Cl)c3)=NO2)CN1C(=O)[C@@H](NC(=O)Cc1cc2c(cc1Cl)OCO2)C(C)(C)C)C(=O)C(=O)NC1CC1 [Compound 449] | 100 to 500 nM
CCC[C@H](NC(=O)[C@@H]1C[C@]2(CC(c3ccc4c(c3)OCO4)=NO2)CN1C(=O)[C@@H](NC(=O)[C@@H](NC(=O)c1cnccn1)C(C)(C)C)C(C)(C)C)C(=O)C(=O)NC1CC1 [Compound 450] | < 100 nM
CCC[C@H](NC(=O)[C@@H]1C[C@]2(CC(c3ccc(F)c(C(F)(F)F)c3)=NO2)CN1C(=O)O[C@H]1CCOC1)C(=O)C(=O)NC1CC1 [Compound 451] | > 500 nM

SMILES | Ki
C#CCCC(NC(=O)[C@@H]1C[C@]2(CC(c3cccc(Cl)c3)=NO2)CN1C(=O)[C@@H](NC(=O)CC1CCCCC1)C(C)(C)C)C(=O)C(=O)NC1CC1 (some centres unmarked) [Compound 453] | 100 to 500 nM
CCC[C@H](NC(=O)[C@@H]1C[C@]2(CC(c3cccc(Cl)c3)=NO2)CN1C(=O)[C@@H](NC(=O)CSc1cccc2cccnc12)C(C)(C)C)C(=O)C(=O)NC1CC1 [Compound 454] | 100 to 500 nM
CCC[C@H](NC(=O)[C@@H]1C[C@@]2(CC(c3cc(F)c(F)c(F)c3)=NO2)CN1C(=O)[C@@H](NC(=O)O[C@H]1CCOC1)C(C)(C)C)C(=O)C(=O)NC1CC1 [Compound 455] | > 500 nM
CCC[C@H](NC(=O)[C@@H]1C[C@]2(CC(c3ccc4c(c3)OCCO4)=NO2)CN1C(=O)[C@@H](NC(=O)O[C@H]1CCOC1)C(C)(C)C)C(=O)C(=O)NC1CC1 [Compound 456] | 100 to 500 nM
CCC[C@H](NC(=O)[C@@H]1C[C@]2(CC(c3cccc(Cl)c3)=NO2)CN1C(=O)[C@@H](NC(=O)OCCc1ccccc1)C(C)(C)C)C(=O)C(=O)NC1CC1 [Compound 463] | > 500 nM
CCC[C@H](NC(=O)[C@@H]1C[C@]2(CC(c3ccc4c(c3)OCO4)=NO2)CN1C(=O)c1ccc[nH]1)C(=O)C(=O)NC1CC1 [Compound 464] | > 500 nM
CCC[C@H](NC(=O)[C@@H]1C[C@]2(CC(c3cccc(Cl)c3)=NO2)CN1C(=O)[C@@H](NC(=O)OCc1ccc(C)cc1)C(C)(C)C)C(=O)C(=O)NC1CC1 [Compound 471] | 100 to 500 nM
CCC[C@H](NC(=O)[C@@H]1C[C@]2(CC(c3ccco3)=NO2)CN1C(=O)[C@@H](NC(=O)OC1CCOC1)C(C)(C)C)C(=O)C(=O)NC1CC1 (some centres unmarked) [Compound 472] | > 500 nM
CCC[C@H](NC(=O)[C@@H]1C[C@]2(CC(c3cccc(Cl)c3)=NO2)CN1C(=O)[C@@H](NC(=O)C(C)Cn1ccc(C)n1)C(C)(C)C)C(=O)C(=O)NC1CC1 (some centres unmarked) [Compound 474] | > 500 nM
CCC[C@H](NC(=O)[C@@H]1C[C@]2(CC(c3cccc(Cl)c3)=NO2)CN1C(=O)[C@@H](NC(=O)CC(C)(O)C(F)(F)F)C(C)(C)C)C(=O)C(=O)NC1CC1 (some centres unmarked) [Compound 475] | 100 to 500 nM
CCC[C@H](NC(=O)[C@@H]1C[C@]2(CC(c3cccc(Cl)c3)=NO2)CN1C(=O)[C@@H](NC(=O)N[C@H](COC)C(C)(C)C)C(C)(C)C)C(=O)C(=O)NC1CC1 [Compound 477] | < 100 nM
CCC[C@H](NC(=O)[C@@H]1C[C@]2(CC(c3ccc(Cl)s3)=NO2)CN1C(=O)[C@@H](NC(=O)CC1CCCCC1)C(C)(C)C)C(=O)C(=O)NC1CC1 [Compound 478] | 100 to 500 nM
CCC[C@H](NC(=O)[C@@H]1C[C@]2(CC(c3cccc(C(=O)O)c3)=NO2)CN1C(=O)[C@@H](NC(=O)O[C@H]1CCOC1)C(C)(C)C)C(=O)C(=O)NC1CC1 [Compound 481] | > 500 nM
CCC[C@H](NC(=O)[C@@H]1C[C@]2(CC(c3cccc(Cl)c3)=NO2)CN1C(=O)[C@@H](NC(=O)CCC(=O)O)C(C)(C)C)C(=O)C(=O)NC1CC1 [Compound 484] | 100 to 500 nM
CCC[C@H](NC(=O)[C@@H]1C[C@]2(CC(c3cccc(Cl)c3)=NO2)CN1C(=O)[C@@H](NC(=O)CC1CC(=O)c2ccc(OC)cc21)C(C)(C)C)C(=O)C(=O)NC1CC1 (some centres unmarked) [Compound 487] | 100 to 500 nM
CCC[C@H](NC(=O)[C@@H]1C[C@]2(CC(c3ccc(Cl)c(C)c3)=NO2)CN1C(=O)[C@@H](NC(=O)CC1CCOCC1)C(C)(C)C)C(=O)C(=O)NC1CC1 [Compound 490] | 100 to 500 nM
CCC[C@H](NC(=O)[C@@H]1C[C@]2(CC(c3cccc(Cl)c3)=NO2)CN1C(=O)[C@@H](NC(=O)NC(C)(C)C)C(C)(C)C)C(=O)C(=O)NC1CC1 [Compound 492] | < 100 nM
